pIC50: −log10 of the molar value. Structures can show the parent of a compound that is named as a salt. Some results are limits rather than exact numbers.

In general, pIC50 refers to the negative decadic logarithm of the IC50, by convention in mol/L.

Experiment [1] deals with human recombinant tryptase (Homo sapiens, UniProt Q15661). Briefly: inhibition of the amidolytic activity of tryptase, chromogenic peptide substrate. Type of experiment: biochemical. To be noted: 2.8 nM human recombinant tryptase, Hepes buffer pH 7.8, 200 nM heparin, substrate tosyl-glycyl-prolyl-lysine-4-nitranilide acetate, room temperature. The protocol: (§1) To show the inhibition of the catalytic activity of tryptase one may use chromogenic peptide substrates. The inhibition of the amidolytic activity of tryptase by the compounds described above was shown as follows. The measurements were carried out at room temperature in microtiter plates. The compounds were dissolved in dimethylsulfoxide and 5 μl of this solution were added to a 2.8 nM solution of human recombinant tryptase in a Hepes buffer (pH: 7.8 In analogy to example 1 and using 100 mM Hepes, 140 mM NaCl, 0.1% PEG 6000, 0.05% Tween 80 and 200 nM heparin). Finally 750 μM of tosyl-glycyl-prolyl-lysine-4-nitranilide acetate in Hepes buffer were added and the hydrolysis of the substrate was followed with a spektrophometer. The same method but using N-methoxycarbonyl-D-norleucyl-glycyl-L-arginine-4-nitroanilide acetate as substrate was used to determine the inhibition of the proteolytic activity of factor Xa, i.e., another serin protease, by the compounds.

For another experiment, the target named is factor Xa (Homo sapiens, UniProt P00742). Description: inhibition of the proteolytic activity of factor Xa, chromogenic peptide substrate. The class given is biochemical. The settings on record: same method, substrate N-methoxycarbonyl-D-norleucyl-glycyl-L-arginine-4-nitroanilide acetate. As to the method: as §1
Chain of factor Xa (P00742 235-488 limits assumed): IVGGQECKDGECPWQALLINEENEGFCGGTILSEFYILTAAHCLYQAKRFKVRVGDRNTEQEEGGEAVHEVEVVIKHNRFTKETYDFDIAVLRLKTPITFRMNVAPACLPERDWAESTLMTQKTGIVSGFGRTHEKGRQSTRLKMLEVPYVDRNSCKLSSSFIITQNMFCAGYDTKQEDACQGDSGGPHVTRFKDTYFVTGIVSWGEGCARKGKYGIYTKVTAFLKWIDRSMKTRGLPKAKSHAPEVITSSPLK
Chain of factor Xa (P00742 41-179 partner limits assumed): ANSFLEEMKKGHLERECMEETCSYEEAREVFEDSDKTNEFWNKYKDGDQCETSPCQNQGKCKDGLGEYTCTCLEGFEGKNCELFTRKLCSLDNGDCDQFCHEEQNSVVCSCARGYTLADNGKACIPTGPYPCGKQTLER

Chain of human recombinant tryptase (Q15661 31-275): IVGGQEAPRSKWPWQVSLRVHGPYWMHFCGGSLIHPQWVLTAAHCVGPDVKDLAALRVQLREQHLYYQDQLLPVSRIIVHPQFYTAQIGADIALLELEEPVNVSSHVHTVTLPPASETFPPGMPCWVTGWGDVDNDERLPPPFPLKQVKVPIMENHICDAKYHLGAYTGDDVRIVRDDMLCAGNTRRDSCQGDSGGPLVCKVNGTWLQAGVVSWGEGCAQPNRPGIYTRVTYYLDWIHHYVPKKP

Turning to `CC(NCc1ccc(C(=N)N)cc1)C(=O)NCC(=O)NCCc1ccccn1` (stereo not drawn) [Example 13, 2-[({4-[amino (imino)methyl]phenyl}methyl)amino]-N-(2-oxo-2-{[2-(2-pyridinyl)ethyl]amino}ethyl)propanamide hydrochloride], the pIC50 in experiment [1] is more than 7.05; at factor Xa, less than 3.96.
On to `COC(=O)c1ccc(C(NCc2ccc(C(=N)N)cc2)C(=O)NC(C(=O)NCCc2c[nH]c3ccccc23)C(C)C)cc1` (stereo not drawn) [Example 7, methyl 4-(1-[({4-[amino(imino)methyl]phenyl}methyl)amino]-2-{[1-({[2-(1H-indol-3-yl)ethyl]amino}carbonyl)-2-methylpropyl]amino}-2-oxoethyl)benzoate hydrochloride], for which the pIC50 is more than 7.05 in experiment [1] and less than 3.96 against factor Xa.
The corresponding values for `CC(C)C(NC(=O)CNc1cccc(C(=N)N)c1)C(=O)NCCc1c[nH]c2ccccc12` (stereo not drawn) [Example 12, 2-{[({3-[amino(imino)methyl]phenyl}amino)acetyl]amino}-N-[2-(1H-indol-3-yl)ethyl]-3-methylbutanamide hydrochloride] are more than 7.05 and 4.84.
The matching figures for `CC(NC(=O)CNc1cccc(C(=N)N)c1)C(=O)NC1CCCCC1` (stereo not drawn) [Example 11, 2-{[({3-[amino(imino)methyl]phenyl}amino)acetyl]amino}-N-cyclohexylpropanamide hydrochloride]: more than 7.05 and 5.35.
The corresponding values for `CCOC(=O)C(Nc1cccc(C(=N)N)c1)C(=O)NC(C(=O)NCCc1c[nH]c2ccccc12)C(C)C` (stereo not drawn) [Example 5, ethyl 2-({3-[amino(imino)methyl]phenyl}amino)-3-{[1-({[2-(1H-indol-3-yl)ethyl]amino}carbonyl)-2-methylpropyl]amino}-3-oxopropanoate hydrochloride] are more than 7.05 and 5.24.
`N=C(N)c1ccc(CNC(CO)C(=O)NCC(=O)NCCc2ccccn2)cc1` (stereo not drawn) [Example 20, 2-[({4-[amino(imino)methyl]phenyl}methyl)amino]-3-hydroxy-N-(2-oxo-2-{[2-(2-pyridinyl)ethyl]amino}ethyl)propanamide hydrochloride]: the pIC50 in experiment [1] was more than 7.05; on factor Xa, less than 3.96.
The matching figures for `N=C(N)c1ccc(CNC(C(=O)NCC(=O)NCCc2ccccn2)c2ccc[nH]2)cc1` (stereo not drawn) [Example 21, 2-[({4-(amino(imino)methyl)phenyl}methyl)amino]-N-(2-oxo-2-{[2-(2-pyridinyl)ethyl]amino}ethyl)-2-(1H-pyrrol-2-yl)acetamide hydrochloride]: more than 7.05 and 5.11.
The matching figures for `N=C(N)c1cccc(NCC(=O)NCC(=O)NCCc2ccc(O)cc2)c1` [Example 9, 2-({3-[amino(imino)methyl]phenyl}amino)-N-(2-{[2-(4-hydroxyphenyl)ethyl]amino}-2-oxoethyl)acetamide hydrochloride]: more than 7.05 and 5.62.
The corresponding values for `N=C(N)c1cccc(NCC(=O)NCC(=O)NCCc2c[nH]c3ccccc23)c1` [Example 2, 2-({3-[amino(imino)methyl]phenyl}amino)-N-(2-{[2-(1H-indol-3-yl)ethyl]amino}-2-oxoethyl)acetamide hydrochloride] are more than 7.05 and 5.17.
As to `N=C(N)c1ccc(CNC(C(=O)NCC(=O)NCc2cccnc2)c2ccc[nH]2)cc1` (stereo not drawn) [Example 22, 2-[({4-[amino(imino)methyl]phenyl}methyl)amino]-N-{2-oxo-2-[(3-pyridinylmethyl)amino]ethyl)-2-(1H-pyrrol-2-yl)acetamide hydrochloride], the pIC50 in experiment [1] is more than 7.05; against factor Xa, 4.82.
The matching figures for `N=C(N)c1cccc(NC(CO)C(=O)NCC(=O)NCCc2c[nH]c3ccccc23)c1` (stereo not drawn) [Example 8, 2-({3-[amino(imino)methyl]phenyl}amino)-3-hydroxy-N-(2-{[2-(1H-indol-3-yl)ethyl]amino}-2-oxoethyl)propanamide hydrochloride]: more than 7.05 and 5.11.
The matching figures for `N=C(N)c1cccc(NCC(=O)NCC(=O)NCCN2CCOCC2)c1` [Example 25, 2-({3-[amino(imino)methyl]phenyl}amino)-N-(2-([2-(4-morpholinyl)ethyl]amino}-2-oxoethyl)acetamide hydrochloride]: more than 7.05 and 4.64.
Turning to `CC(Nc1cccc(C(=N)N)c1)C(=O)NCC(=O)NCCc1c[nH]c2ccccc12` (stereo not drawn) [Example 3, 2-({3-[amino(imino)methyl]phenyl}amino)-N-(2-{[2-(1H-indol-3-yl)ethyl]amino}-2-oxoethyl)propanamide hydrochloride], the pIC50 is more than 7.05 in experiment [1] and 4.66 against factor Xa.
The matching figures for `COc1ccc(CNC(=O)C(C)NC(=O)CNCc2ccc(C(=N)N)cc2)cc1OC` (stereo not drawn) [Example 6, 2-({[({4-[amino(imino)methyl]phenyl}methyl)amino]acetyl}amino)-N-{[3,4-bis(methyloxy)phenyl]methyl}propanamide hydrochloride]: more than 7.05 and less than 3.96.
`COc1ccc(CNC(=O)CNC(=O)CNc2cccc(C(=N)N)c2)cc1OC` [Example 16, 2-({3-[amino (imino)methyl]phenyl}amino)-N-[2-({[3,4-bis(methyloxy)phenyl]methyl]amino}-2-oxoethyl)acetamide hydrochloride]: the pIC50 in experiment [1] is more than 7.05; on factor Xa, 5.04.
As to `N=C(N)c1cccc(NC(CO)C(=O)NCC(=O)N2CCc3ccccc3C2)c1` (stereo not drawn) [Example 15, 2-({3-[amino (imino)methyl]phenyl}amino)-N-[2-(3,4-dihydro-2 (1H)-isoquinolinyl)-2-oxoethyl]-3-hydroxypropanamide hydrochloride], the pIC50 in experiment [1] is more than 7.05; against factor Xa it was 5.40.
The corresponding values for `N=C(N)c1cccc(NCC(=O)NCC(=O)NCc2ccccc2)c1` [Example 14, 2-({3-[amino (imino)methyl]phenyl}amino)-N-{2-oxo-2-[(phenylmethyl)amino]ethyl}acetamide hydrochloride] are more than 7.05 and 5.15.
The matching figures for `COc1ccccc1N1CCN(C(=O)CNC(=O)CNc2cccc(C(=N)N)c2)CC1` [Example 24, 2-({3-[amino(imino)methyl]phenyl}amino)-N-(2-{4-[2-(methyloxy)phenyl]-1-piperazinyl}-2-oxoethyl)acetamide hydrochloride]: more than 7.05 and 5.80.
The corresponding values for `N=C(N)c1ccc(CNCC(=O)NCC(=O)N2CCN(Cc3ccc4c(c3)OCO4)CC2)cc1` [Example 23, 2-[({4-(amino(imino)methyl)phenyl)methyl)amino]-N-(2-[4-(1,3-benzodioxol-5-ylmethyl)-1-piperazinyl]-2-oxoethyl}acetamide hydrochloride] are more than 7.05 and less than 3.96.
With `CC(C)C(NC(=O)C(CO)Nc1cccc(C(=N)N)c1)C(=O)NCCC(c1ccccc1)c1ccccc1` (stereo not drawn) [Example 19, 2-{[2-({3-[amino(imino)methyl]phenyl}amino)-3-hydroxypropanoyl]amino}-N-(3,3-diphenylpropyl)-3-methylbutanamide hydrochloride], the pIC50 was more than 7.05 in experiment [1] and 5.07 on factor Xa.
For the molecule `CC(C)C(NC(=O)C(CO)Nc1cccc(C(=N)N)c1)C(=O)NCc1ccccc1` (stereo not drawn) [Example 17, 2-{[2-({3-[amino(imino)methyl]phenyl}amino)-3-hydroxypropanoyl]amino}-3-methyl-N-(phenylmethyl)butanamide hydrochloride], the pIC50 is more than 7.05 in experiment [1] and 5.12 against factor Xa.
The corresponding values for `N=C(N)c1cccc(NC(C(=O)NCC(=O)NCCc2c[nH]c3ccccc23)c2cc[nH]n2)c1` (stereo not drawn) [Example 4, 2-({3-[amino(imino)methyl]phenyl}amino)-N-(2-{[2-(1H-indol-3-yl)ethyl]amino}-2-oxoethyl)-2-(1H-pyrazol-3-yl)acetamide hydrochloride] are more than 7.05 and 4.58.
`CC(C)C(Nc1cccc(C(=N)N)c1)C(=O)NCC(=O)NCCc1c[nH]c2ccccc12` (stereo not drawn) [Example 10, 2-({3-[amino(imino)methyl]phenyl}amino)-N-(2-{[2-(1H-indol-3-yl)ethyl]amino}-2-oxoethyl)-3-methylbutanamide hydrochloride]: the pIC50 in experiment [1] is more than 7.05; against factor Xa, 4.26.
The matching figures for `CC(C)C(NC(=O)C(CO)Nc1cccc(C(=N)N)c1)C(=O)NCc1ccc2c(c1)OCO2` (stereo not drawn) [Example 18, 2-{[2-({3-[amino(imino)methyl]phenyl}amino)-3-hydroxypropanoyl]amino}-N-(1,3-benzodioxol-5-ylmethyl)-3-methylbutanamide hydrochloride]: more than 7.05 and 5.07.
